# Data published in patent US20240069010A1, “TISSUE ORGANOID BIOPRINTING AND HIGH-THROUGHPUT SCREENING METHODOLOGY” (priority 2020, published 2024).
# Like-named read-outs stand apart in the source and are kept apart here.
# What was measured:
# MCF-7 organoids = test: Endpoint ATP-release assay (CellTiter-Glo) of organoid viability; format: cell-based; details: for viability at 0.1 µM / viability at 1 µM / viability at 10 µM / viability at 50 µM: Homo sapiens
# Procedure: (§1) All drug treatments of 3D organoids were performed in serum-free conditions in MammoCult™ medium supplemented with 1% antibiotic-antimycotic (Gibco 15240-062). A detailed protocol for the drug screening has been published previously in Phan, N. et al. supra; and Nguyen, H. T. L. & Soragni, supra. Briefly, the culture medium was fully removed three days after seeding and replaced with 100 μL of MammoCult™ medium containing the indicated treatments using an automated pipetting system (EpMotion® 96). After treatment, we transferred the organoids to the HSLCI for imaging. Organoids were imaged by HSLCI between 6 hours and 48 hours after treatment. After imaging, we performed an ATP assay to assess cell viability in accordance with the manufacturer's instructions. The media was aspirated from each well and replaced with 50 μL of 5 mg/mL Dispase (Thermo-Fisher) solution to digest the Matrigel. After a 25-minute incubation at 37° C., the plate was placed on an orbital shaker for 5 minutes at 80 RPM. We then added 30 μL of CellTiter-Glo® reagent (Promega), sealed the plate with film, covered the plate with foil to protect from light, shook the plate for 5 minutes at 80 RPM, and incubated at room temperature for an additional 20 minutes. We used a SpectraMax iD3 plate reader to measure luminescence. The program parameters for luminescence readings were 5 minutes of shaking prior to reading, reading all wavelengths, and integrating signal over 500 ms. Organoid viability within each well was calculated by dividing the luminescent signal from each well by the mean luminescence of the control (1% DMSO) wells. Two-tailed independent t-tests were performed to assess the statistical significance of the differences in organoid mass and cell viability. P-values less than 0.05 were deemed significant.
# BT-474 organoids = test: as above; format: cell-based; details: for viability at 0.1 µM / viability at 1 µM / viability at 10 µM / viability at 50 µM: Homo sapiens
# Procedure: as §1, with “Organoids were imaged by HSLCI between 6 hours and 48 hours after treatment. After imaging, we performed an ATP assay to assess cell viability in accordance with the manufacturer's instructions.” left out
# [1] = in vivo; cited from earlier work
# [2] = MCF7, 6 h, read-out: Comparisons of cell viability measures by ATP detection assay, Mean mass ± SD
# [3] = MCF7, 72 h, read-out: Organoid viability by endpoint ATP assay, Viability ± SD
# [4] = BT-474, 48 h, read-out: Comparisons of cell viability measures by ATP detection assay, Mean mass ± SD
# [5] = BT-474, 72 h, read-out: Organoid viability by endpoint ATP assay, Viability ± SD
smiles,measurement,setting,value
"CS(=O)(=O)CCNCc1ccc(-c2ccc3ncnc(Nc4ccc(OCc5cccc(F)c5)c(Cl)c4)c3c2)o1 [Lapatinib, lapatinib]",viability at 0.1 µM,"MCF-7 organoids; MCF7, MCF-7, 0.1 μM, 72 h of treatment, luminescence relative to 1% DMSO control, read-out: Organoid viability by endpoint ATP assay, Viability ± SD",100 ± 3%
same,viability at 1 µM,"MCF-7 organoids; MCF7, MCF-7, 1 μM, 72 h of treatment, luminescence relative to 1% DMSO control, read-out: Organoid viability by endpoint ATP assay, Viability ± SD",101 ± 4%
same,viability at 10 µM,"MCF-7 organoids; MCF7, MCF-7, 10 μM, 72 h of treatment, luminescence relative to 1% DMSO control, read-out: Organoid viability by endpoint ATP assay, Viability ± SD",66 ± 7%
same,viability at 50 µM,"MCF-7 organoids; MCF7, MCF-7, 72 h of treatment, luminescence relative to 1% DMSO control, read-out: Organoid viability by endpoint ATP assay, Viability ± SD",14 ± 3%
same,viability at 0.1 µM,"MCF-7 organoids; MCF7, listed as printed as 6 hours, 0.1 μM, relative to 1% DMSO, read-out: Comparisons of cell viability measures by ATP detection assay, Mean mass ± SD",100 ± 3%
same,viability at 1 µM,"MCF-7 organoids; MCF7, listed as printed as 6 hours, 1 μM, relative to 1% DMSO, read-out: Comparisons of cell viability measures by ATP detection assay, Mean mass ± SD",101 ± 4%
same,viability at 10 µM,"MCF-7 organoids; MCF7, listed as printed as 6 hours, 10 μM, relative to 1% DMSO, read-out: Comparisons of cell viability measures by ATP detection assay, Mean mass ± SD",66 ± 7%
same,viability at 50 µM,"MCF-7 organoids; MCF7, listed as printed as 6 hours, relative to 1% DMSO, read-out: Comparisons of cell viability measures by ATP detection assay, Mean mass ± SD",14 ± 3%
same,"Organoid viability by endpoint ATP assay, Viability ± SD","BT-474 organoids; BT-474, 0.1 μM, 72 h of treatment, luminescence relative to 1% DMSO control",significant reductions in viability
same,viability at 0.1 µM,"BT-474 organoids; BT-474, listed as printed as 48 hours, 0.1 μM, relative to 1% DMSO, read-out: Comparisons of cell viability measures by ATP detection assay, Mean mass ± SD",70 ± 18%
same,viability at 1 µM,"BT-474 organoids; BT-474, listed as printed as 48 hours, 1 μM, relative to 1% DMSO, read-out: Comparisons of cell viability measures by ATP detection assay, Mean mass ± SD",43 ± 9%
same,viability at 10 µM,"BT-474 organoids; BT-474, listed as printed as 48 hours, 10 μM, relative to 1% DMSO, read-out: Comparisons of cell viability measures by ATP detection assay, Mean mass ± SD",32 ± 4%
same,viability at 50 µM,"BT-474 organoids; BT-474, listed as printed as 48 hours, relative to 1% DMSO, read-out: Comparisons of cell viability measures by ATP detection assay, Mean mass ± SD",9 ± 7%
same,viability at 0.1 µM,"BT-474 organoids; BT-474, 0.1 μM, 72 h of treatment, luminescence relative to 1% DMSO control, read-out: Organoid viability by endpoint ATP assay, Viability ± SD",70 ± 18%
same,viability at 1 µM,"BT-474 organoids; BT-474, 1 μM, 72 h of treatment, luminescence relative to 1% DMSO control, read-out: Organoid viability by endpoint ATP assay, Viability ± SD",43 ± 9%
same,viability at 10 µM,"BT-474 organoids; BT-474, 10 μM, 72 h of treatment, luminescence relative to 1% DMSO control, read-out: Organoid viability by endpoint ATP assay, Viability ± SD",32 ± 4%
same,viability at 50 µM,"BT-474 organoids; BT-474, 72 h of treatment, luminescence relative to 1% DMSO control, read-out: Organoid viability by endpoint ATP assay, Viability ± SD",9 ± 7%
same,maximum plasma concentration reported,[1],4.2 µM
"CN[C@@H]1C[C@H]2O[C@@](C)([C@@H]1OC)n1c3ccccc3c3c4c(c5c6ccccc6n2c5c31)C(=O)NC4 [Staurosporine, staurosporine]",viability at 0.1 µM,MCF-7 organoids; [2],50 ± 8%
same,viability at 1 µM,MCF-7 organoids; [2],17 ± 4%
same,viability at 10 µM,MCF-7 organoids; [2],13 ± 3%
same,viability at 0.1 µM,MCF-7 organoids; [3],50 ± 8%
same,viability at 1 µM,MCF-7 organoids; [3],17 ± 4%
same,viability at 10 µM,MCF-7 organoids; [3],13 ± 3%
same,"Organoid viability by endpoint ATP assay, Viability ± SD","MCF-7 organoids; MCF-7, 1 μM, 72 h of treatment, luminescence relative to 1% DMSO control",near-zero viability
same,"Organoid viability by endpoint ATP assay, Viability ± SD","MCF-7 organoids; MCF-7, 10 μM, 72 h of treatment, luminescence relative to 1% DMSO control",near-zero viability
same,"Organoid viability by endpoint ATP assay, Viability ± SD","BT-474 organoids; BT-474, 1 μM, 72 h of treatment, luminescence relative to 1% DMSO control",near-zero viability
same,"Organoid viability by endpoint ATP assay, Viability ± SD","BT-474 organoids; BT-474, 10 μM, 72 h of treatment, luminescence relative to 1% DMSO control",near-zero viability
same,viability at 0.1 µM,BT-474 organoids; [4],58 ± 14%
same,viability at 1 µM,BT-474 organoids; [4],2 ± 1%
same,viability at 10 µM,BT-474 organoids; [4],1%
same,viability at 0.1 µM,BT-474 organoids; [5],58 ± 14%
same,viability at 1 µM,BT-474 organoids; [5],2 ± 1%
same,viability at 10 µM,BT-474 organoids; [5],1%
